What was measured:
Assay type in all cases: biochemical
[1] = Inhibitory effects on generation of peroxide lipid, methyl linoleate as substrate; conditions: 100 μl of 500 ppm solution, 89 mg methyl linoleate, 40° C. 18 hours in the dark
Experimental: Each sample shown in Table 1 described above was examined for inhibitory effects on the generation of peroxide lipid, with methyl linoleate as a substrate. Namely, 100 μl of each aqueous solution used in the paragraph (Measurement of radical-scavenging activity) and 89 mg (100 μl) of methyl linoleate were added to a small test tube of 14 mm in inner diameter and well mixed. At the same time, 100 μl of only the solvent for the aqueous solution was added instead of the aqueous solution to prepare a control. The solvents in these mixture solutions were completely removed in a vacuum desiccator using a vacuum pump. The resulting solutions were left in the dark at 40° C. for 18 hours. Next, 5 ml of 0.08% BHT (2,6-di-t-butyl-4-methylphenol)/hexane solution was added thereto. The amount of peroxide generated from methyl linoleate was measured using HPLC Analysis System 2 shown below under HPLC Condition 4. In a method of measuring and evaluating antioxidative activity, the total of HPLC peak area of peroxide lipids (13-hydroperoxide and 9-hydroperoxide) generated from methyl linoleate in the control test section was determined first. This determined value was regarded as 100%. The total HPLC peak area of the peroxide lipids in the test section supplemented with each sample was determined. This determined value was indicated by percentage (%) with respect to the total of HPLC peak area of the control to thereby determine a rate of inhibition against the oxidation of methyl linoleate.
Pump: Shimadzu LC-10AD, System Controller: Shimadzu SCL-10A, Autoinjector: Shimadzu SIL-10A, Detector: Shimadzu SPD-10A (UV spectrophotometric detector), Column Oven: Shimadzu CTO-10A
Column: Develosil ST 60-5 (4.6 i.d.×250 mm), Eluent: n-hexane/1,4-dioxane/isopropylalcohol=98/1/1 (v/v/v), Flow Rate: 1 ml/min, Detection Wavelength: 235 nm

[2] = Measurement of DPPH radical-scavenging activity; conditions: 500 ppm solution (with vitamin C: each 500 ppm), 100 μl aliquot, 20 minutes room temperature in the dark
Experimental: Each sample shown in Table 1 described below was examined for DPPH (1,1-diphenyl-2-picrylhydrazyl) radical-scavenging activity. Namely, the lemon glycoside of Comparative Example 1, the eriocitrin of Comparative Example 2, the enzyme-treated aglycon of Test Example 1, or eriodictyol, neoeriocitrin, vitamin C, or α-tocopherol purchased from Funakoshi was dissolved at its concentration of 500 ppm in a solvent to produce an aqueous solution. Then, 100 μl aliquot of the aqueous solution was supplemented with 1 ml of 0.1 M Tris buffer (pH 7.4). The solvent used for α-tocopherol was methanol. Alternatively, each sample described above and vitamin C were dissolved at each concentration of 500 ppm in a solvent to produce an aqueous solution whose 100 μl aliquot was then supplemented with 1 ml of 0.1 M Tris buffer. Subsequently, 2 ml of a DPPH solution (solution obtained by dissolving DPPH at its concentration of 500 μM in ethanol) was added to the solutions and well mixed. The resulting solutions were left at room temperature for 20 minutes in the dark to undergo reaction. The amount of DPPH in each reaction solution (10 μl) was quantified by measurement using HPLC Analysis System 2 described below under HPLC Condition 3. In a method of evaluating radical-scavenging activity, the amount of DPPH remaining in the sample (glycoside and aglycon)-free test section (control) was regarded in advance as 100%. Additionally, the amount of DPPH remaining in the reaction solution supplemented with each sample was measured and indicated by percentage (%) with respect to the amount of DPPH in the control section. Because the radical-scavenging activity of the section supplemented with eriodictyol and vitamin C was almost 100%, the test was conducted again with the amount of the sample reduced to half. Namely, eriodictyol and vitamin C were dissolved at each concentration of 500 ppm in a solvent to produce an aqueous solution whose 50 μl aliquot was then supplemented with 1 ml of 0.1 M Tris buffer. The radical-scavenging activity of the resulting solution was measured as described above. The obtained numeric value was doubled to thereby correct the data. The result is shown in Table 1. <HPLC Analysis System 2> Pump: Shimadzu LC-10AD, System Controller: Shimadzu SCL-10A, Autoinjector: Shimadzu SIL-10A, Detector: Shimadzu SPD-10A (UV spectrophotometric detector), Column Oven: Shimadzu CTO-10A <HPLC Condition 3> Column: TSK-GEL octyl-80Ts (4.6 i.d.×150 mm), Eluent: methanol/water=30/70 (v/v), Flow Rate: 1 ml/min, Detection Wavelength: 517 nm

[3] = Measurement of rate of elimination of active oxygen (xanthine oxidase / xanthine / nitro blue tetrazolium); conditions: as printed for α-tocopherol in the active oxygen test
Experimental: Xanthine oxidase (0.5 ml (5.6 units)) was mixed with 0.3 ml of 1 mM xanthine (manufactured by Wako Pure Chemical Industries), 0.3 ml of 0.25 mM nitro blue tetrazolium (manufactured by Wako Pure Chemical Industries), and 2.3 ml of 0.05 M sodium carbonate buffer (pH 10.2). The xanthine oxidase used was a reagent (manufactured by Wako Pure Chemical Industries) diluted at 100 fold with 0.05 M sodium carbonate buffer. This mixture was supplemented with 0.1 ml (concentration: 1000 ppm) of the lemon glycoside of Comparative Example 1 or the enzyme-treated aglycon of Test Example 1 and incubated. Because blue formazan was produced with a lapse of incubation time, absorbance at λ=560 nm was measured using a spectrophotometer (HITACHI spectrophotometer U2000) after 3 minutes of incubation. A test section without addition of the sample (glycoside and aglycon) was used as control. As a blank test, a sodium carbonate buffer was added instead of the xanthine oxidase to perform the same procedures. A value obtained by subtracting the absorbance of the blank test from the absorbance of the solution supplemented with each sample was divided by the absorbance of the control to thereby determine a rate of elimination of active oxygen (%).

[4] = Inhibitory effect on oxidation of biomembrane using liposome (SUV, AAPH, TBA); conditions: 500 ppm sample in phosphate buffer pH 7.4, AAPH, 535 nm
Experimental: A single compartment liposome (SUV: Small Unilamellar Vesicle) was used as a biomembrane model to evaluate antioxidative power. For preparing SUV, at first, 100 mg of yolk lecithin was supplemented with 1 ml of chloroform and completely dissolved, followed by the complete removal of the chloroform in a short-neck flask. The obtained lipid film was swollen by the addition of 10 ml of 10 mM phosphate buffer (pH 7.4) containing 500 ppm of the lemon glycoside of Comparative Example 1, the eriocitrin of Comparative Example 2, the enzyme-treated aglycon of Test Example 1, or eriodictyol (manufactured by Funakoshi). The resulting mixture was well shaken and completely dispersed with an ultrasonic washing machine. The lipid film swollen by the addition of 10 ml of only the phosphate buffer was tested as a control in the same way. Next, the obtained multilayer liposome solution was bubbled with nitrogen gas for 5 minutes and then sonicated at 180 W for 20 minutes in a strong ultrasonic generator to prepare a small unilamellar vesicle (SUV).
The peroxidation of the SUV thus prepared was forcedly promoted by the addition of AAPH ([…]), a radical initiator, to the SUV. As a result, a peroxide as a primary product is generated in the liposome. Subsequently, as a secondary product such as malondialdehyde is generated during the course of autoxidation. A thiobarbituric acid (TBA) reagent is added thereto to generate a red substance (TBA-positive substance), a reaction product of aldehydes. The degree of coloration thereof was measured with a spectrophotometer at λ=535 nm and used to determine the rate of oxidation of the liposome membrane (%).

rate of oxidation [3] | SMILES | Rate of inhibition against oxidation of methyl linoleate [1] | DPPH radical-scavenging activity [2] | rate of oxidation of the liposome membrane [4]
 | O=C1O[C@H]([C@@H](O)CO)C(O)=C1O [Vitamin C, ascorbic acid] | 8.32% | 14.00% | 
238.2% | Cc1c(C)c2c(c(C)c1O)CC[C@@](C)(CCC[C@H](C)CCC[C@H](C)CCCC(C)C)O2 [α-tocopherol] | 16.97% | 44.82% | 76.87%
 | C[C@@H]1O[C@@H](O[C@H]2[C@H](Oc3cc(O)c4c(c3)O[C@H](c3ccc(O)c(O)c3)CC4=O)O[C@H](CO)[C@@H](O)[C@@H]2O)[C@H](O)[C@H](O)[C@H]1O [Neoeriocitrin, neoeriocitrin] | 9.24% | 30.70% | 
 | C[C@@H]1O[C@@H](OC[C@H]2O[C@@H](Oc3cc(O)c4c(c3)O[C@H](c3ccc(O)c(O)c3)CC4=O)[C@H](O)[C@@H](O)[C@@H]2O)[C@H](O)[C@H](O)[C@H]1O [Eriocitrin, eriocitrin] | 8.00% | 28.64% | 9.52%
 | O=C1C[C@@H](c2ccc(O)c(O)c2)Oc2cc(O)cc(O)c21 [Eriodictyol, eriodictyol] | 20.99% | 75.70% | 6.80%

Source: US8247002B2, “Antioxidant material, anti-deterioration agent and food or beverage” (Pokka Corporation, priority 2004, dated 2012)
